Test results: ChEMBL document CHEMBL1155342, “Design, synthesis and analgesic properties of novel conformationally-restricted N-acylhydrazones (NAH)” (2009)

Assays:
Mus musculus [1] = test: Antinociceptive activity in mouse assessed as inhibition of acetic acid-induced abdominal constrictions at 100 umol/kg, po relative to untreated control; type: functional; conditions: Abdomen
Mus musculus [2] = test: Antinociceptive activity in po dosed mouse assessed as inhibition of acetic acid-induced abdominal constrictions; type: functional; conditions: Abdomen

## COc1ccc(C(=O)N/N=C/c2ccccc2)cc1
Mus musculus [1]
  inhibition in vivo at 100 µmol/kg: 54%
Mus musculus [2]
  ED50: 9.2 µmol/kg

## COc1ccc(-c2nnc3ccc(-c4ccccc4)nn23)cc1
Mus musculus [1]
  inhibition in vivo at 100 µmol/kg: 22%

## COc1ccc(C(=O)N(C)/N=C/c2ccccc2)cc1
Mus musculus [1]
  inhibition in vivo at 100 µmol/kg: 50%
Mus musculus [2]
  ED50: 5.9 µmol/kg

## COC1=CC2N=CN=C(N/N=C/c3ccccc3)C2C=C1 (centres undefined)
Mus musculus [1]
  inhibition in vivo at 100 µmol/kg: 28%

## COc1ccc2c(=O)n(/N=C/c3ccccc3)cnc2c1
Mus musculus [1]
  inhibition in vivo at 100 µmol/kg: 48%
Mus musculus [2]
  ED50: 4.2 µmol/kg

## COc1ccc(C(=O)n2nc(-c3ccccc3)cc2C)cc1
Mus musculus [1]
  inhibition in vivo at 100 µmol/kg: 50%
Mus musculus [2]
  ED50: 5.1 µmol/kg

## COc1ccc2c(c1)CC(c1ccccc1)=NNC2=O
Mus musculus [1]
  inhibition in vivo at 100 µmol/kg: 36%

## CC(=O)Nc1ccc(O)cc1 [ACETAMINOPHEN]
Mus musculus [1]
  inhibition in vivo at 100 µmol/kg: 36%

## COc1ccc2c(c1)c(CC(=O)O)c(C)n2C(=O)c1ccc(Cl)cc1 [INDOMETHACIN]
Mus musculus [1]
  inhibition in vivo at 100 µmol/kg: 42%
Mus musculus [2]
  ED50: 56.2 µmol/kg
